{"source": "patent US20260285850A1", "about": "“SUBSTITUTED OXAZOLIDINONES AND IMIDAZOLINONES AS HERBICIDES” (FMC CORPORATION, priority 2023, published 2026)", "format_in_all_cases": "in vivo", "key": {"[1]": {"test_system": "barnyardgrass (Echinochloa crus-galli)", "experiment": "Test A preemergence soil spray, visual injury rating 0-100", "details": "10 days", "summary_of_the_method": "(§1)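 Plants in a loam and sand soil blend were treated with each test chemical, in a non-phytotoxic solvent system including surfactant, either sprayed on seeded soil before emergence or applied after emergence at the one- to two-leaf stage. Ten days later in the greenhouse, plants were compared with untreated controls and visually rated from 0 (no effect) to 100 (complete control).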"}, "[2]": {"test_system": "blackgrass (Alopecurus myosuroides)", "experiment": "Test A preemergence soil spray, visual injury rating 0-100", "details": "10 days", "summary_of_the_method": "as §1"}, "corn (Zea mays) [3]": {"test_system": "corn (Zea mays)", "experiment": "Test A preemergence soil spray, visual injury rating 0-100", "details": "10 days", "summary_of_the_method": "as §1"}, "[4]": {"test_system": "green foxtail (Setaria viridis)", "experiment": "Test A preemergence soil spray, visual injury rating 0-100", "details": "10 days", "summary_of_the_method": "as §1"}, "kochia (Bassia scoparia) [5]": {"test_system": "kochia (Bassia scoparia)", "experiment": "Test A preemergence soil spray, visual injury rating 0-100", "details": "10 days", "summary_of_the_method": "as §1"}, "[6]": {"test_system": "oat, wild (wild oat, Avena fatua)", "experiment": "Test A preemergence soil spray, visual injury rating 0-100", "details": "10 days", "summary_of_the_method": "as §1"}, "[7]": {"test_system": "palmer (palmer amaranth, palmer pigweed, Amaranthus palmeri)", "experiment": "Test A preemergence soil spray, visual injury rating 0-100", "details": "10 days", "summary_of_the_method": "as §1"}, "[8]": {"test_system": "ragweed (common ragweed, Ambrosia artemisiifolia)", "experiment": "Test A preemergence soil spray, visual injury rating 0-100", "details": "10 days", "summary_of_the_method": "as §1"}, "[9]": {"test_system": "ryegrass, Italian (italian ryegrass, Lolium multiflorum)", "experiment": "Test A preemergence soil spray, visual injury rating 0-100", "details": "10 days", "summary_of_the_method": "as §1"}, "soybean (Glycine max) [10]": {"test_system": "soybean (Glycine max)", "experiment": "Test A preemergence soil spray, visual injury rating 0-100", "details": "10 days", "summary_of_the_method": "as §1"}, "[11]": {"test_system": "wheat (Triticum aestivum)", "experiment": "Test A preemergence soil spray, visual injury rating 0-100", "details": "10 days", "summary_of_the_method": "as §1"}, "[12]": {"test_system": "barnyardgrass (Echinochloa crus-galli)", "experiment": "Test A postemergence application, visual injury rating 0-100", "summary_of_the_method": "as §1"}, "[13]": {"test_system": "blackgrass (Alopecurus myosuroides)", "experiment": "Test A postemergence application, visual injury rating 0-100", "summary_of_the_method": "as §1"}, "corn (Zea mays) [14]": {"test_system": "corn (Zea mays)", "experiment": "Test A postemergence application, visual injury rating 0-100", "summary_of_the_method": "as §1"}, "[15]": {"test_system": "galium (catchweed bedstraw, Galium aparine)", "experiment": "Test A postemergence application, visual injury rating 0-100", "summary_of_the_method": "as §1"}, "[16]": {"test_system": "green foxtail (Setaria viridis)", "experiment": "Test A postemergence application, visual injury rating 0-100", "summary_of_the_method": "as §1"}, "kochia (Bassia scoparia) [17]": {"test_system": "kochia (Bassia scoparia)", "experiment": "Test A postemergence application, visual injury rating 0-100", "summary_of_the_method": "as §1"}, "[18]": {"test_system": "oat, wild (wild oat, Avena fatua)", "experiment": "Test A postemergence application, visual injury rating 0-100", "summary_of_the_method": "as §1"}, "[19]": {"test_system": "palmer (palmer amaranth, palmer pigweed, Amaranthus palmeri)", "experiment": "Test A postemergence application, visual injury rating 0-100", "summary_of_the_method": "as §1"}, "[20]": {"test_system": "ragweed (common ragweed, Ambrosia artemisiifolia)", "experiment": "Test A postemergence application, visual injury rating 0-100", "summary_of_the_method": "as §1"}, "[21]": {"test_system": "ryegrass, Italian (italian ryegrass, Lolium multiflorum)", "experiment": "Test A postemergence application, visual injury rating 0-100", "summary_of_the_method": "as §1"}, "soybean (Glycine max) [22]": {"test_system": "soybean (Glycine max)", "experiment": "Test A postemergence application, visual injury rating 0-100", "summary_of_the_method": "as §1"}, "[23]": {"test_system": "wheat (Triticum aestivum)", "experiment": "Test A postemergence application, visual injury rating 0-100", "summary_of_the_method": "as §1"}, "[24]": {"test_system": "barnyardgrass (Echinochloa crusgalli)", "experiment": "Test B flooded paddy test, visual plant response rating 0-100", "details": "250 g ai/ha, Flood, applied to paddy water, evaluated after 13 days", "summary_of_the_method": "(§2)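 In this flooded assay, 2-leaf seedlings received compound through the water layer, kept at 3 cm over the soil. Plants were held 13 days in a greenhouse and then visually compared with control pots.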"}, "[25]": {"test_system": "ducksalad (Heteranthera limosa)", "experiment": "Test B flooded paddy test, visual plant response rating 0-100", "details": "250 g ai/ha, Flood, applied to paddy water, evaluated after 13 days", "summary_of_the_method": "as §2"}, "rice (Oryza sativa)": {"test_system": "rice (Oryza sativa)", "experiment": "Test B flooded paddy test, visual plant response rating 0-100", "details": "250 g ai/ha, Flood, applied to paddy water, evaluated after 13 days", "summary_of_the_method": "as §2"}, "[26]": {"test_system": "sedge, umbrella (small-flower umbrella sedge, Cyperus difformis)", "experiment": "Test B flooded paddy test, visual plant response rating 0-100", "details": "250 g ai/ha, Flood, applied to paddy water, evaluated after 13 days", "summary_of_the_method": "as §2"}, "[27]": {"details": "62 g ai/ha, 0 = no effect, 100 = complete control"}, "[28]": {"details": "62 g ai/ha, postemergence, 10 days, 0 = no effect, 100 = complete control"}, "[29]": {"details": "Postemergence, 16 g ai/ha, greenhouse 10 days, 0 no effect, 100 complete control"}}, "data": [{"smiles": "C=CC1(C(=O)NC2CC=C(C(=O)OC)C2)CN(c2cc(F)cc(F)c2)C(=O)O1", "note": "(racemic) [Compound 169]", "values": [{"measurement": "Barnyardgrass plant response rating", "setting": "[1]; 16 g ai/ha, 0 to 100 scale", "result": 10}, {"measurement": "Barnyardgrass plant response rating (0-100)", "setting": "[1]; [27]", "result": 90}, {"measurement": "Blackgrass plant response rating", "setting": "[2]; 16 g ai/ha, 0 to 100 scale", "result": 0}, {"measurement": "Blackgrass plant response rating (0-100)", "setting": "[2]; [27]", "result": 30}, {"measurement": "Corn plant response rating", "setting": "corn (Zea mays) [3]; 16 g ai/ha, 0 to 100 scale", "result": 0}, {"measurement": "Corn plant response rating (0-100)", "setting": "corn (Zea mays) [3]; [27]", "result": 60}, {"measurement": "Foxtail, Green plant response rating", "setting": "[4]; 16 g ai/ha, 0 to 100 scale", "result": 0}, {"measurement": "Foxtail, Green plant response rating (0-100)", "setting": "[4]; [27]", "result": 90}, {"measurement": "Kochia plant response rating", "setting": "kochia (Bassia scoparia) [5]; 16 g ai/ha, 0 to 100 scale", "result": 0}, {"measurement": "Kochia plant response rating (0-100)", "setting": "kochia (Bassia scoparia) [5]; [27]", "result": 40}, {"measurement": "Oat, Wild plant response rating", "setting": "[6]; 16 g ai/ha, 0 to 100 scale", "result": 20}, {"measurement": "Oat, Wild plant response rating (0-100)", "setting": "[6]; [27]", "result": 50}, {"measurement": "Pigweed, Palmer plant response rating", "setting": "[7]; 16 g ai/ha, 0 to 100 scale", "result": 0}, {"measurement": "Pigweed, Palmer plant response rating (0-100)", "setting": "[7]; [27]", "result": 50}, {"measurement": "Ragweed plant response rating", "setting": "[8]; 16 g ai/ha, 0 to 100 scale", "result": 0}, {"measurement": "Ragweed plant response rating (0-100)", "setting": "[8]; [27]", "result": 10}, {"measurement": "Ryegrass, Italian plant response rating", "setting": "[9]; 16 g ai/ha, 0 to 100 scale", "result": 90}, {"measurement": "Ryegrass, Italian plant response rating (0-100)", "setting": "[9]; [27]", "result": 90}, {"measurement": "Soybean plant response rating", "setting": "soybean (Glycine max) [10]; 16 g ai/ha, 0 to 100 scale", "result": 10}, {"measurement": "Soybean plant response rating (0-100)", "setting": "soybean (Glycine max) [10]; [27]", "result": 20}, {"measurement": "Wheat plant response rating", "setting": "[11]; 16 g ai/ha, 0 to 100 scale", "result": 80}, {"measurement": "Wheat plant response rating (0-100)", "setting": "[11]; [27]", "result": 90}, {"measurement": "Barnyardgrass plant response rating (0-100)", "setting": "[12]; [28]", "result": 100}, {"measurement": "Barnyardgrass plant response rating (0 to 100 scale)", "setting": "[12]; [29]", "result": 100}, {"measurement": "Blackgrass plant response rating (0-100)", "setting": "[13]; [28]", "result": 100}, {"measurement": "Blackgrass plant response rating (0 to 100 scale)", "setting": "[13]; [29]", "result": 100}, {"measurement": "Corn plant response rating (0-100)", "setting": "corn (Zea mays) [14]; [28]", "result": 100}, {"measurement": "Corn plant response rating (0 to 100 scale)", "setting": "corn (Zea mays) [14]; [29]", "result": 100}, {"measurement": "Galium plant response rating (0-100)", "setting": "[15]; [28]", "result": 80}, {"measurement": "Galium plant response rating (0 to 100 scale)", "setting": "[15]; [29]", "result": 70}, {"measurement": "Foxtail, Green plant response rating (0-100)", "setting": "[16]; [28]", "result": 90}, {"measurement": "Foxtail, Green plant response rating (0 to 100 scale)", "setting": "[16]; [29]", "result": 90}, {"measurement": "Kochia plant response rating (0-100)", "setting": "kochia (Bassia scoparia) [17]; [28]", "result": 80}, {"measurement": "Kochia plant response rating (0 to 100 scale)", "setting": "kochia (Bassia scoparia) [17]; [29]", "result": 80}, {"measurement": "Oat, Wild plant response rating (0-100)", "setting": "[18]; [28]", "result": 90}, {"measurement": "Oat, Wild plant response rating (0 to 100 scale)", "setting": "[18]; [29]", "result": 90}, {"measurement": "Pigweed, Palmer plant response rating (0-100)", "setting": "[19]; [28]", "result": 70}, {"measurement": "Pigweed, Palmer plant response rating (0 to 100 scale)", "setting": "[19]; [29]", "result": 20}, {"measurement": "Ragweed plant response rating (0-100)", "setting": "[20]; [28]", "result": 70}, {"measurement": "Ragweed plant response rating (0 to 100 scale)", "setting": "[20]; [29]", "result": 0}, {"measurement": "Ryegrass, Italian plant response rating (0-100)", "setting": "[21]; [28]", "result": 90}, {"measurement": "Ryegrass, Italian plant response rating (0 to 100 scale)", "setting": "[21]; [29]", "result": 80}, {"measurement": "Soybean plant response rating (0-100)", "setting": "soybean (Glycine max) [22]; [28]", "result": 70}, {"measurement": "Soybean plant response rating (0 to 100 scale)", "setting": "soybean (Glycine max) [22]; [29]", "result": 60}, {"measurement": "Wheat plant response rating (0-100)", "setting": "[23]; [28]", "result": 90}, {"measurement": "Wheat plant response rating (0 to 100 scale)", "setting": "[23]; [29]", "result": 90}, {"measurement": "Plant response rating, Barnyardgrass (0 to 100 scale, 0 is no effect and 100 is complete control)", "setting": "[24]", "result": 90}, {"measurement": "Plant response rating, Ducksalad (0 to 100 scale, 0 is no effect and 100 is complete control)", "setting": "[25]", "result": 100}, {"measurement": "Plant response rating, Rice (0 to 100 scale, 0 is no effect and 100 is complete control)", "setting": "rice (Oryza sativa)", "result": 95}, {"measurement": "Plant response rating, Sedge, Umbrella (0 to 100 scale, 0 is no effect and 100 is complete control)", "setting": "[26]", "result": 100}]}]}
